Test [1] deals with hCA IX (Homo sapiens, UniProt Q16790). Kind of test: biochemical. To be noted: for IC50: IC50 (μM) ± SEM CA IX, ± SEM.
The target in test [2] is hCA II (Homo sapiens, UniProt P00918). Kind of test: Carbonic anhydrase II inhibition activity. The test is classed as biochemical.
Test [3] has as its target hCA XII (Homo sapiens, UniProt O43570). Kind of test: Carbonic anhydrase XII inhibition activity. The test is classed as biochemical.

Sequence of hCA XII (O43570 25-354): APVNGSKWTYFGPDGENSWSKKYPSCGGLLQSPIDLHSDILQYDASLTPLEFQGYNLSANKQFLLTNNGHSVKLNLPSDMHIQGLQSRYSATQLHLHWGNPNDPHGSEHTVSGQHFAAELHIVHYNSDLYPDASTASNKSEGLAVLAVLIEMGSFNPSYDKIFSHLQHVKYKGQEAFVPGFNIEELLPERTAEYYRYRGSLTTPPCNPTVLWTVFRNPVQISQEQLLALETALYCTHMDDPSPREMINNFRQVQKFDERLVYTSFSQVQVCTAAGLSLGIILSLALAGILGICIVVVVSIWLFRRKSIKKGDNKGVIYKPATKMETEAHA

A word on the IC50: it is the concentration at which inhibition is half-maximal. As to `Cc1ccc(S(=O)(=O)Nc2ccccc2)cc1` [Compound 3a, 4-Methyl-N-phenylbenzenesulfonamide], the IC50 in test [1] (CA IX) is 1.2 ± 0.75 µM; in test [2], 1300 ± 510 nM.

In the case of `Cc1ccc(S(=O)(=O)Nc2cc(C)ccc2C)cc1` [Compound 3b, N-(2,5-Dimethylphenyl)-4-methylbenzenesulfonamide], the IC50 in test [1] (CA IX) came to 1.65 ± 1.3 µM; in test [3], 1030 ± 230 nM.

As for `Cc1ccc(S(=O)(=O)Nc2c(C)cccc2C)cc1` [Compound 3c, N-(2,6-Dimethylphenyl)-4-methylbenzenesulfonamide], the half-inhibitory concentration (IC50) worked out at 1.06 ± 0.63 µM in test [1] (CA IX), 700 ± 200 nM in test [3] and 1550 ± 800 nM in test [2].

The term inhibition denotes the percentage by which the read-out fell short of the control. Consider `CCN(CC)c1ccc(NS(=O)(=O)c2ccc(C)cc2)cc1` [Compound 3e, N-(4-(Diethylamino)phenyl)-4-methylbenzenesulfonamide], for which the “% inhibition CA IX” value in test [1] (CA IX, at 100 μM) was 31%. In addition, the inhibition at 100 µM in test [1] (read-out: % inhibition CA IX, CA IX, at 100 μM) was < 31%. For the same compound, in test [3], it took 630 ± 140 nM to reach half-maximal inhibition (IC50).

For `Cc1ccc(S(=O)(=O)NCc2ccccc2)cc1` [Compound 3f, N-benzyl-4-methylbenzenesulfonamide], the IC50 in test [1] (CA IX) amounted to 1.98 ± 0.61 µM; in test [3], 860 ± 280 nM; in test [2], 1070 ± 820 nM.

As to `Cc1ccc(S(=O)(=O)NC(c2ccccc2)c2ccccc2)cc1` [Compound 3g, N-Benzhydryl-4-methylbenzenesulfonamide], the IC50 amounted to 0.78 ± 0.83 µM in test [1] (CA IX), 1300 ± 780 nM in test [3] and 863 ± 540 nM in test [2].

With `Cc1ccc(S(=O)(=O)NNc2ccccc2)cc1` [Compound 3h, 4-Methyl-N′-phenylbenzenesulfonohydrazide], the results for the IC50 in test [1] (CA IX), in test [3] and in test [2] were 0.484 ± 1.4 µM, 1080 ± 620 nM and 520 ± 440 nM, respectively.

On to `COc1ccc(S(=O)(=O)NNc2ccccc2)cc1` [Compound 3i, 4-Methoxy-N′-phenylbenzenesulfonohydrazide], for which the “% inhibition CA XII” value in test [3] (CA XII, at 100 μM) is given as 27%. The 50% inhibitory concentration (IC50) in test [2] came out at 2760 ± 1100 nM.

As for `Cc1ccc(S(=O)(=O)Nc2ccc(C)c(C)c2)cc1` [Compound 3j, N-(3,4-Dimethylphenyl)-4-methylbenzenesulfonamide], the IC50 stood at 0.62 ± 0.2 µM in test [1] (CA IX), 1120 ± 1000 nM in test [3] and 2500 ± 1500 nM in test [2].

Regarding `COc1ccc(S(=O)(=O)Nc2ccccc2)cc1` [Compound 3k, 4-Methoxy-N-phenylbenzenesulfonamide], the IC50 amounted to 1140 ± 370 nM in test [3] and 1740 ± 540 nM in test [2].

For `COc1ccc(CCNS(=O)(=O)c2ccc(C)cc2)cc1OC` [Compound 3l, N-(3,4-Dimethoxyphenethyl)-4-methylbenzenesulfonamide], the IC50 came to 0.764 ± 0.54 µM in test [1] (CA IX) and 1170 ± 1000 nM in test [3]. The “% inhibition CA II” value in test [2] (CA II, at 100 μM) was 32%. For the same compound, in test [2] (read-out: % inhibition CA II, CA II, at 100 μM), the inhibition at 100 µM is < 50%.

Turning to `COc1ccc(S(=O)(=O)NC(c2ccccc2)c2ccccc2)cc1` [Compound 3m, N-Benzhydryl-4-methoxybenzenesulfonamide], the values for the IC50 in test [3] and in test [2] were 1400 ± 570 nM and 507 ± 400 nM, respectively.

The record behind these values is PMC8979346 (RSC Advances, 2022).
